Measured values reported in PubChem BioAssay AID330 (DTP/NCI, 2004).
Values joined by “and” are separate entries in the source; they are usually repeats but may differ in a detail not shown here. Identical values can stand only once. Inconclusive results and toxic doses are left out. How the source made its calls: active means survival T/C of 150% or more; inactive means T/C below 125% in these data. Square brackets hold non-standard residues; d marks the D form. Peptide text beside a SMILES is read from it. * marks the point of attachment. ξ: configuration not given here. Cbz = O=C(OCc1ccccc1)*; ξNva = CCCC(N)C(=O)O

System: P388 leukemia ip, CD2F1 mice, survival T/C
Assay: NCI In Vivo Anticancer Drug Screen. Data for tumor model P388 Leukemia (intraperitoneal) in CD2F1 (CDF1) mice
Conditions: endpoint: median survival time, higher = longer survival
In short: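 Mice carrying the transplanted tumor received test compound or vehicle. Survival was recorded in each group, and the value is the treated-group measurement divided by that of the vehicle-treated control group.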

[1] = dose: 100.0 mg/kg/injection, schedule: Q04DX002 (ip), vehicle: saline with Tween-80
[2] = dose: 50.0 mg/kg/injection, schedule: Q01DX005 (ip), vehicle: Klucel (hydroxypropylcellulose) (HPC)
[3] = dose: 100.0 mg/kg/injection, schedule: Q01DX005 (ip), vehicle: Klucel (hydroxypropylcellulose) (HPC)
[4] = dose: 200.0 mg/kg/injection, schedule: Q01DX005 (ip), vehicle: Klucel (hydroxypropylcellulose) (HPC)
[5] = dose: 100.0 mg/kg/injection, schedule: Q01DX009 (ip), vehicle: saline with Tween-80
[6] = dose: 50.0 mg/kg/injection, schedule: Q01DX005 (ip), vehicle: saline with Tween-80
[7] = dose: 100.0 mg/kg/injection, schedule: Q01DX005 (ip), vehicle: saline with Tween-80
[8] = dose: 200.0 mg/kg/injection, schedule: Q01DX005 (ip), vehicle: saline with Tween-80
[9] = dose: 25.0 mg/kg/injection, schedule: Q01DX005 (ip), vehicle: Klucel (hydroxypropylcellulose) (HPC)
[10] = dose: 12.5 mg/kg/injection, schedule: Q01DX005 (ip), vehicle: Klucel (hydroxypropylcellulose) (HPC)

Measured: T/C

N=C(N)c1ccc2nc(/C=C\c3nc4ccc(C(=N)N)cc4[nH]3)[nH]c2c1
inactive: dose: 100.0 mg/kg/injection, schedule: Q04DX002 (ip), vehicle: saline 110 % of control | dose: 200.0 mg/kg/injection, schedule: Q04DX002 (ip), vehicle: saline 117 % of control

CC(=O)NS(=O)(=O)c1ccc(N=Cc2c3ccccc3nc3cc(Cl)ccc23)cc1
inactive: [1] 101 % of control | dose: 200.0 mg/kg/injection, schedule: Q04DX002 (ip), vehicle: saline with Tween-80 93 % of control | dose: 400.0 mg/kg/injection, schedule: Q04DX002 (ip), vehicle: saline with Tween-80 101 % of control

CCCC(NC(=O)OCc1ccccc1)C(=O)NCC(N)=O (stereo not drawn) (Cbz-[ξNva]-Gly-NH2)
inactive: [2] 103 % of control | [3] 100 % of control | [4] 100 % of control

O=C(O)c1cc(N=C=S)ccc1-c1c2ccc(=O)cc-2oc2cc(O)ccc12
inactive: dose: 12.5 mg/kg/injection, schedule: Q01DX005 (ip), vehicle: saline + Tween-80 + alcohol 105 % of control | dose: 25.0 mg/kg/injection, schedule: Q01DX005 (ip), vehicle: saline + Tween-80 + alcohol 105 % of control | dose: 50.0 mg/kg/injection, schedule: Q01DX005 (ip), vehicle: saline + Tween-80 + alcohol 105 % of control | dose: 60.0 mg/kg/injection, schedule: Q01DX005 (ip), vehicle: saline with Tween-80 114 % of control | dose: 120.0 mg/kg/injection, schedule: Q01DX005 (ip), vehicle: saline with Tween-80 115 % of control

CSc1ccc(NC(=O)Nc2nccs2)cc1
inactive: dose: 100.0 mg/kg/injection, schedule: Q04DX003 (ip), vehicle: saline with Tween-80 95 % of control | dose: 200.0 mg/kg/injection, schedule: Q04DX003 (ip), vehicle: saline with Tween-80 100 % of control | dose: 400.0 mg/kg/injection, schedule: Q04DX003 (ip), vehicle: saline with Tween-80 90 % of control

Cn1cnc([N+](=O)[O-])c1Sc1ccncc1S(N)(=O)=O
inactive: [2] 118 % of control | [3] 102 % of control | [4] 108 % of control

CCOc1ccc(Nc2ccc(/C(=C3\C=CC(=[N+](CC)Cc4cccc(S(=O)(=O)O)c4)C=C3C)c3ccc(N(CC)Cc4cccc(S(=O)(=O)O)c4)cc3C)cc2)cc1
inactive: dose: 50.0 mg/kg/injection, schedule: Q01DX009 (ip), vehicle: saline with Tween-80 98 % of control | [5] 97 % of control

ClC1=CC(=N/Br)/C=CC/1=N/Br
inactive: [6] 99 % of control and 101 % of control and 107 % of control | [7] 100 % of control and 103 % of control and 97 % of control | [8] 106 % of control and 108 % of control and 120 % of control

COC(=O)CCC(N)C(=O)NC(Cc1ccccc1)C(=O)NC(C)C(=O)NC1C(O)OC(CO)C(O)C1O (stereo not drawn)
inactive: dose: 60.0 mg/kg/injection, schedule: Q01DX005 (ip), vehicle: saline 99 % of control | dose: 120.0 mg/kg/injection, schedule: Q01DX005 (ip), vehicle: saline 98 % of control | dose: 240.0 mg/kg/injection, schedule: Q01DX005 (ip), vehicle: saline 99 % of control

NC(=O)C(Cl)(Cl)Cl
inactive: [5] 100 % of control | dose: 200.0 mg/kg/injection, schedule: Q01DX009 (ip), vehicle: saline with Tween-80 99 % of control | dose: 400.0 mg/kg/injection, schedule: Q01DX009 (ip), vehicle: saline with Tween-80 99 % of control

CCN(CC)Cc1cc(N=Nc2cc(OC)c(N=Nc3ccc([N+](=O)[O-])cc3)cc2OC)c2cccnc2c1O
inactive: [9] 107 % of control | [2] 106 % of control and 107 % of control and 114 % of control | [3] 112 % of control and 117 % of control and 123 % of control | [4] 112 % of control and 117 % of control | dose: 400.0 mg/kg/injection, schedule: Q01DX005 (ip), vehicle: Klucel (hydroxypropylcellulose) (HPC) 116 % of control

CN1CCC(Br)(C(=O)c2ccccc2)CC1
inactive: dose: 37.5 mg/kg/injection, schedule: Q01DX009 (ip), vehicle: saline with Tween-80 100 % of control | dose: 75.0 mg/kg/injection, schedule: Q01DX009 (ip), vehicle: saline with Tween-80 100 % of control | dose: 150.0 mg/kg/injection, schedule: Q01DX009 (ip), vehicle: saline with Tween-80 104 % of control

CN1C(=O)C(CC(=O)O)(Cc2ccccc2)N(C(=O)c2ccccc2)[C@H]1C(C)(C)C (stereo partly drawn)
inactive: dose: 100.0 mg/kg/injection, schedule: Q01DX001 (ip), vehicle: saline with Tween-80 112 % of control | dose: 200.0 mg/kg/injection, schedule: Q01DX001 (ip), vehicle: saline with Tween-80 94 % of control | dose: 400.0 mg/kg/injection, schedule: Q01DX001 (ip), vehicle: saline with Tween-80 108 % of control

CC(=O)N1CCc2cc([N+](=O)[O-])ccc21
inactive: dose: 50.0 mg/kg/injection, schedule: Q01DX009 (ip), vehicle: Klucel (hydroxypropylcellulose) (HPC) 99 % of control | dose: 100.0 mg/kg/injection, schedule: Q01DX009 (ip), vehicle: Klucel (hydroxypropylcellulose) (HPC) 113 % of control | dose: 200.0 mg/kg/injection, schedule: Q01DX009 (ip), vehicle: Klucel (hydroxypropylcellulose) (HPC) 100 % of control | dose: 400.0 mg/kg/injection, schedule: Q01DX009 (ip), vehicle: Klucel (hydroxypropylcellulose) (HPC) 110 % of control

CCCCCCN=C(N)N/N=C(\C)c1ccc2c(c1)Cc1ccccc1-2
inactive: dose: 12.5 mg/kg/injection, schedule: Q04DX002 (ip), vehicle: saline with Tween-80 107 % of control | dose: 25.0 mg/kg/injection, schedule: Q04DX002 (ip), vehicle: saline with Tween-80 100 % of control | dose: 50.0 mg/kg/injection, schedule: Q04DX002 (ip), vehicle: saline with Tween-80 92 % of control | [1] 116 % of control

COC1=C(OC)C(=O)C(COC2CCCCO2)=CC1=O (stereo not drawn)
inactive: dose: 7.5 mg/kg/injection, schedule: Q01DX005 (ip), vehicle: saline with Tween-80 98 % of control | dose: 15.0 mg/kg/injection, schedule: Q01DX005 (ip), vehicle: saline with Tween-80 103 % of control

O=C(CNC(=O)C(Cc1c[nH]c2ccccc12)NC(=O)OCc1ccccc1)NCC(=O)OCc1ccccc1 (stereo not drawn)
inactive: [6] 104 % of control | [7] 100 % of control | [8] 110 % of control

CC(C)N(C(=S)Sc1c2ccccc2c(Br)c2ccccc12)C(C)C
inactive: [10] 108 % of control | [9] 102 % of control | [2] 99 % of control and 89 % of control

C=C1C(=O)OC2/C=C(\CO)C3OC3C3OC3(C)CC(OC(=O)/C(=C/C)CO)C12 (stereo not drawn)
inactive: dose: 3.12 mg/kg/injection, schedule: Q01DX005 (ip), vehicle: Klucel (hydroxypropylcellulose) (HPC) 99 % of control and 106 % of control | dose: 6.25 mg/kg/injection, schedule: Q01DX005 (ip), vehicle: Klucel (hydroxypropylcellulose) (HPC) 100 % of control and 107 % of control and 110 % of control | [10] 105 % of control and 106 % of control | [2] 100 % of control and 109 % of control

CN[C@H]1CCc2cc(OC)c(OC)c(OC)c2-c2ccc(OC)c(=O)cc21
inactive: dose: 0.5 mg/kg/injection, schedule: Q01DX009 (ip), vehicle: saline 109 % of control | dose: 0.5 mg/kg/injection, schedule: Q01DX009 (ip), vehicle: water 109 % of control | dose: 0.63 mg/kg/injection, schedule: Q01DX009 (ip), vehicle: water 112 % of control | dose: 1.0 mg/kg/injection, schedule: Q01DX009 (ip), vehicle: saline with Tween-80 117 % of control | dose: 1.0 mg/kg/injection, schedule: Q01DX009 (ip), vehicle: saline 104 % of control and 124 % of control | dose: 2.0 mg/kg/injection, schedule: Q01DX009 (ip), vehicle: saline with Tween-80 98 % of control | dose: 2.0 mg/kg/injection, schedule: Q01DX009 (ip), vehicle: saline 104 % of control and 121 % of control | dose: 4.0 mg/kg/injection, schedule: Q01DX009 (ip), vehicle: saline with Tween-80 95 % of control | dose: 4.0 mg/kg/injection, schedule: Q01DX009 (ip), vehicle: saline 104 % of control | dose: 4.0 mg/kg/injection, schedule: Q04DX003 (ip), vehicle: saline with Tween-80 103 % of control | dose: 5.0 mg/kg/injection, schedule: Q01DX009 (ip), vehicle: water 117 % of control | dose: 8.0 mg/kg/injection, schedule: Q01DX009 (ip), vehicle: saline 121 % of control | dose: 8.0 mg/kg/injection, schedule: Q04DX003 (ip), vehicle: saline with Tween-80 101 % of control | dose: 16.0 mg/kg/injection, schedule: Q04DX003 (ip), vehicle: saline with Tween-80 102 % of control | dose: 32.0 mg/kg/injection, schedule: Q04DX003 (ip), vehicle: saline with Tween-80 102 % of control
active: dose: 8.0 mg/kg/injection, schedule: Q01DX009 (ip), vehicle: water 152 % of control | dose: 10.0 mg/kg/injection, schedule: Q01DX009 (ip), vehicle: water 155 % of control
